Reference: patent publication US20260007613A1, “LONG-ACTING LOW-TOXICITY NOVEL CATIONIC LIPID COMPOUNDS AND COMPOSITION THEREOF” (BEIJING YOUCAREKECHUANG PHARMACEUTICAL TECHNOLOGY CO., LTD., priority 2023, published 2026)
Where “and” joins values, the source holds several entries; their conditions need not be identical. Identical values can stand only once.

How the values were obtained:
[1] = Particle size and polydispersity index (PDI) of lipid nanoparticles by dynamic light scattering; assay type: physicochemical; conditions: LNP formulation prepared from the cationic lipid, 25° C.
Description: The particle size and polydispersity index (PDI) were determined by dynamic light scattering using Malvern laser particle size analyzer.
10 μL of the liposome solution was weighed, diluted to 1 mL with RNase-free deionized water, and added to the sample pool. Each sample was measured in triplicate. The measurement conditions were: […] scattering angle, and 25° C.

293T cells [2] = assay: Fluorescent detection of Fluc-mRNA (cell transfection efficiency of LNP formulations); assay type: cell-based
Summary of the method: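 Transfection read-out: IVIS imaging after […], 24 h after adding LNPs (lipid molar ratio 49:10:39.5:1.5 cationic/neutral/structured/polymer-lipid; […] Fluc-mRNA). Adherent 293T cells were seeded overnight at 10,000 per well beforehand.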

liver = assay: Distribution of liposomes in mice: protein expression in the liver (live imaging); assay type: in vivo; conditions: at 6 h, intramuscular injection
Description: The LNP formulation containing […] Fluc-mRNA was injected intramuscularly into female BALB/C mice aged 4 to 6 weeks old and weighed 17 to 19 g, and the mice were intraperitoneally injected with fluorescent imaging substrate at specific time points after administration (6 h, 24 h, 48 h and 7 d), where the mice were free to move for 5 minutes, and then the average radiation intensity (corresponding to fluorescence expression intensity) of the protein expression of the mRNA carried by the LNP in the mice was detected by the IVIS Spectrum small animal live imaging device.
At 24 h, the LNP formulations prepared from all compounds had been metabolized in the liver and had no protein expression.

female BALB/C mice = assay: Live imaging in mice: protein expression of Fluc-mRNA delivered by LNP formulations; assay type: in vivo; conditions: for average radiation intensity, times that of ALC-0315: comparator ALC-0315; for average radiation intensity, times that of HHMA: comparator HHMA; for average radiation intensity, times that of SM-102: comparator SM-102; for expression of mRNA in mice, times that of YK-302: comparator YK-302; for expression amount, times that of YK-309: comparator YK-309; for expression amount, times that of YK-313: comparator YK-313; for expression amount, times that of YK-321: comparator YK-321; for average radiation intensity, times that of compound 21: comparator compound 21; for average radiation intensity, times that of compound 23: comparator compound 23
Summary of the method: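 Female BALB/C mice (4-6 weeks, 17-19 g) received LNP-formulated Fluc-mRNA […] intramuscularly. At 6 h, 24 h, 48 h and 7 d, luciferase substrate given intraperitoneally, and after 5 min average radiance measured by IVIS whole-body imaging.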

293T cells [3] = assay: Cell survival rate determination (CCK-8); assay type: cell-based
Summary of the method: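 Readout was CCK-8 absorbance (450 nm, 1 h) taken after a 24 h exposure of overnight-adhered 293T cells (10,000 per well, 96-well) to Lipofectamine 3000 or to LNPs carrying Fluc-mRNA, lipid molar ratio 49:10:39.5:1.5 cationic/neutral/structured/polymer-conjugated.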

## CCCCCCCCCCCOC(=O)CCCCCN(CCCC(=O)OCCCC(CCCCCCCCCC)CCCCCCCCCC)C[C@H](O)CN(CC)CCO [YK-310]
[1]
  PDI (%): 12.4%
  Particle size (nm): 192 nm
293T cells [2]; LNP formulation of Fluc-mRNA, 96-well plate, 24 hours
  Relative light unit (RLU): 25797040 RLU
293T cells [2]; RLU of YK-305 / RLU of the lipid of the line
  Multiples (YK-305): 1.06
293T cells [2]; RLU of YK-310 / RLU of the lipid of the line
  Multiples (YK-310): 1.00
293T cells [2]; RLU of YK-312 / RLU of the lipid of the line
  Multiples (YK-312): 0.78
293T cells [2]; RLU of YK-318 / RLU of the lipid of the line, Tables 5, 7, 11
  Multiples (YK-318): 0.43
293T cells [2]; RLU of YK-319 / RLU of the lipid of the line, Tables 5, 7, 11
  Multiples (YK-319): 0.95
293T cells [2]; RLU of the lipid / RLU of SM-102, times that of SM-102
  Ratio relative to SM-102: 16.08
293T cells [2]; comparator ALC-0315
  cell transfection efficiency, times that of ALC-0315: 12.69 times
293T cells [2]; comparator HHMA
  cell transfection efficiency, times that of HHMA: 12.86 times
293T cells [2]; comparator Lipofectamine 3000
  cell transfection efficiency, times that of Lipofectamine 3000: 21.76 times
293T cells [2]; comparator YK-009
  cell transfection efficiency, times that of YK-009: 5.04 times
293T cells [2]; comparator YK-301
  cell transfection efficiency, times that of YK-301: 30.62 times
293T cells [2]; comparator YK-302
  cell transfection efficiency, times that of YK-302: 928.69 times
293T cells [2]; comparator YK-303
  cell transfection efficiency, times that of YK-303: 41.19 times
293T cells [2]; comparator YK-304
  cell transfection efficiency, times that of YK-304: ~1200 times and 1247.08 times
293T cells [2]; comparator YK-306
  cell transfection efficiency, times that of YK-306: 11.74 times
293T cells [2]; comparator YK-307
  cell transfection efficiency, times that of YK-307: 5.66 times
293T cells [2]; comparator YK-308
  cell transfection efficiency, times that of YK-308: 5.12 times
293T cells [2]; comparator YK-309
  cell transfection efficiency, times that of YK-309: ~200 times and 205.77 times
293T cells [2]; comparator YK-311
  cell transfection efficiency, times that of YK-311: 13.14 times
293T cells [2]; comparator YK-313
  cell transfection efficiency, times that of YK-313: 29.77 times
293T cells [2]; comparator YK-314
  cell transfection efficiency, times that of YK-314: 47.12 times
293T cells [2]; comparator YK-315
  cell transfection efficiency, times that of YK-315: 16.25 times
293T cells [2]; comparator YK-316
  cell transfection efficiency, times that of YK-316: 5.36 times
293T cells [2]; comparator YK-317
  cell transfection efficiency, times that of YK-317: 7.16 times
293T cells [2]; comparator YK-320
  cell transfection efficiency, times that of YK-320: 9.54 times
293T cells [2]; comparator YK-321
  cell transfection efficiency, times that of YK-321: 18.38 times
293T cells [2]; comparator compound 21
  cell transfection efficiency, times that of compound 21: 18.01 times
293T cells [2]; comparator compound 23
  cell transfection efficiency, times that of compound 23: 19.02 times
liver
  protein expression in the liver: no protein expression in the liver
Female BALB/C mice; 6 h
  average radiation intensity, times that of ALC-0315: 10.56 times
  average radiation intensity, times that of HHMA: 14.02 times
  average radiation intensity, times that of SM-102: 13.01 times
  expression of mRNA in mice, times that of YK-302: 625.87 times
  expression amount, times that of YK-309: 138.93 times
  expression amount, times that of YK-313: 20.64 times
  expression amount, times that of YK-321: 17.70 times
  average radiation intensity, times that of compound 21: 14.95 times
  average radiation intensity, times that of compound 23: 15.48 times
Female BALB/C mice; 6 h after intramuscular injection
  average radiation intensity: 9125240
Female BALB/C mice; 24 h
  average radiation intensity, times that of ALC-0315: 15.50 times
  average radiation intensity, times that of HHMA: 24.61 times
  average radiation intensity, times that of SM-102: 24.51 times
  expression of mRNA in mice, times that of YK-302: 746.29 times
  expression amount, times that of YK-309: 175.52 times
  expression amount, times that of YK-313: 28.27 times
  expression amount, times that of YK-321: 29.16 times and ~29 times
  average radiation intensity, times that of compound 21: 26.88 times
  average radiation intensity, times that of compound 23: 28.24 times
Female BALB/C mice; 24 h after intramuscular injection
  average radiation intensity: 2952310
Female BALB/C mice; 48 h
  average radiation intensity, times that of ALC-0315: 24.64 times
  average radiation intensity, times that of HHMA: 30.13 times
  average radiation intensity, times that of SM-102: 30.14 times
  expression of mRNA in mice, times that of YK-302: 957.07 times
  expression amount, times that of YK-309: 149.75 times
  expression amount, times that of YK-313: 38.38 times
  expression amount, times that of YK-321: 26.83 times
  average radiation intensity, times that of compound 21: 31.67 times
  average radiation intensity, times that of compound 23: 29.62 times
Female BALB/C mice; 48 h after intramuscular injection
  average radiation intensity: 981000
Female BALB/C mice; 7 d
  average radiation intensity, times that of ALC-0315: 16.67 times
  average radiation intensity, times that of HHMA: 20.01 times
  average radiation intensity, times that of SM-102: 17.74 times
  expression of mRNA in mice, times that of YK-302: 305.89 times
  expression amount, times that of YK-309: 93.52 times
  expression amount, times that of YK-313: 36.31 times
  expression amount, times that of YK-321: 17.84 times and ~17 times
  average radiation intensity, times that of compound 21: 18.23 times
  average radiation intensity, times that of compound 23: 18.82 times
Female BALB/C mice; 7 d after intramuscular injection
  average radiation intensity: 117462
293T cells [3]; LNP formulation of Fluc-mRNA, 24 hours, CCK-8
  Cell survival rate (%): 82.10%
293T cells [3]; difference of survival rates, comparator ALC-0315
  cell survival rate higher than ALC-0315: 31.07% and ~30%
293T cells [3]; difference of survival rates, comparator HHMA
  cell survival rate higher than HHMA: 15.63% and ~15%
293T cells [3]; difference of survival rates, comparator Lipofectamine 3000
  cell survival rate higher than Lipofectamine 3000: 57.09%
293T cells [3]; difference of survival rates, comparator SM-102
  cell survival rate higher than SM-102: 12.65% and ~12%
293T cells [3]; difference of survival rates, comparator YK-301
  cell survival rate higher than YK-301: 29.14%
293T cells [3]; difference of survival rates, comparator YK-302
  cell survival rate higher than YK-302: 65.67% and ~65% and ~50%
293T cells [3]; difference of survival rates, comparator YK-303
  cell survival rate higher than YK-303: 18.78%
293T cells [3]; difference of survival rates, comparator YK-304
  cell survival rate higher than YK-304: 47.94%
293T cells [3]; difference of survival rates, comparator YK-306
  cell survival rate higher than YK-306: 39.91%
293T cells [3]; difference of survival rates, comparator YK-307
  cell survival rate higher than YK-307: 20.96%
293T cells [3]; difference of survival rates, comparator YK-308
  cell survival rate higher than YK-308: 11.11%
293T cells [3]; difference of survival rates, comparator YK-309
  cell survival rate higher than YK-309: 50.49%
293T cells [3]; difference of survival rates, comparator YK-311
  cell survival rate higher than YK-311: 12.04%
293T cells [3]; difference of survival rates, comparator YK-313
  cell survival rate higher than YK-313: 13.17%
293T cells [3]; difference of survival rates, comparator YK-314
  cell survival rate higher than YK-314: 14.22%
293T cells [3]; difference of survival rates, comparator YK-315
  cell survival rate higher than YK-315: 10.82%
293T cells [3]; difference of survival rates, comparator YK-316
  cell survival rate higher than YK-316: 11.57%
293T cells [3]; difference of survival rates, comparator YK-317
  cell survival rate higher than YK-317: 22.92% and ~20%
293T cells [3]; difference of survival rates, comparator YK-320
  cell survival rate higher than YK-320: 11.03%
293T cells [3]; difference of survival rates, comparator YK-321
  cell survival rate higher than YK-321: 9.76%
293T cells [3]; difference of survival rates, comparator compound 21
  cell survival rate higher than compound 21: 11.89%
293T cells [3]; difference of survival rates, comparator compound 23
  cell survival rate higher than compound 23: 10.60%
